Consider 21 compounds from patent publication US20190010139A1 (priority 2015, published 2019).

The test system of this experiment is NL-RLuc virus. The experiment can be described thus: Inhibition of HIV replication (NL-RLuc luciferase reporter virus in MT-2 cells). Format: cell-based. The following applies: Human immunodeficiency virus 1, MT2, 120 h. The text has this: Inhibition of HIV Replication:
A recombinant NL-RLuc proviral clone was constructed in which a section of the nef gene from NL4-3 was replaced with the Renilla Luciferase gene. This virus is fully infectious and can undergo multiple cycles of replication in cell culture. In addition, the luciferous reporter provides a simple and easy method for quantitating the extent of virus growth and consequently, the antiviral activity of test compounds. The plasmid pNLRLuc contains the proviral NL-Rluc DNA cloned into pUC 18 at the PvuII site. The NL-RLuc virus was prepared by transfection of 293T cells with the plasmid pNLRLuc. Transfections were performed using the LipofectAMINE PLUS kit from Invitrogen (Carlsbad, Calif.) according to the manufacturer and the virus generated was titered in MT-2 cells. For susceptibility analyses, the titrated virus was used to infect MT-2 cells in the presence of compound, and after 5 days of incubation, cells were processed and quantitated for virus growth by the amount of expressed luciferase. Assay media was RPMI 1640 supplemented with 10% heat inactivated fetal bovine serum (FBS), 100 units/ml penicillin G/100 units/ml streptomycin, 10 mM HEPES buffer pH 7.55 and 2 mM L-glutamine. The results from at least 2 experiments were used to calculate the EC50 values. Luciferase was quantitated using the Dual Luciferase kit from Promega (Madison, Wis.). Susceptibility of viruses to compounds was determined by incubation in the presence of serial dilutions of the compound. The 50% effective concentration (EC50) was calculated by using the exponential form of the median effect equation where (Fa)=1/[1+(ED50/drug conc.)^m](Johnson V A, Byington R T. Infectivity Assay. In Techniques in HIV Research. ed. Aldovini A, Walker B D. 71-76. New York: Stockton Press.1990). Activity equal to A refers to a compound having an EC50≤100 nM, while B and C denote compounds having an EC50 between 100 nM and 1 uM (B) or >1 uM (C).

Molecules are shown by their SMILES. Where two headings read alike, the source gives them in different places.

Regarding `Cc1nc(CNCC2CCOCC2)c(-c2ccc(OCCc3ccc(F)cc3)cc2)c(N2CCC3(CCC3)CC2)c1[C@H](OC(C)(C)C)C(=O)O` [Example 45, (S)-2-(tert-Butoxy)-2-(5-(4-(4-fluorophenethoxy)phenyl)-2-methyl-4-(7-azaspiro[3.5]nonan-7-yl)-6-((((tetrahydro-2H-pyran-4-yl)methyl)amino)methyl)pyridin-3-yl)acetic acid], the EC50 (read-out: Activity) is under 0.1 µM.
On to `Cc1nc(CN(C)CC2CCOCC2)c(-c2ccc(OCCc3ccc(F)cc3)cc2)c(N2CCC3(CCC3)CC2)c1[C@H](OC(C)(C)C)C(=O)O` [Example 46, (S)-2-(tert-Butoxy)-2-(5-(4-(4-fluorophenethoxy)phenyl)-2-methyl-6-((methyl((tetrahydro-2H-pyran-4-yl)methyl)amino)methyl)-4-(7-azaspiro[3.5]nonan-7-yl)pyridin-3-yl)acetic acid], for which the EC50 (read-out: Activity) was under 0.1 µM.
As to `COc1ccc(NCc2nc(C)c([C@H](OC(C)(C)C)C(=O)O)c(N3CCC4(CCC4)CC3)c2-c2ccc(OCCc3ccc(F)cc3)cc2)cc1` [Example 47, (S)-2-(tert-Butoxy)-2-(5-(4-(4-fluorophenethoxy)phenyl)-6-(((4-methoxyphenyl)-amino)methyl)-2-methyl-4-(7-azaspiro[3.5]nonan-7-yl)pyridin-3-yl)acetic acid], the EC50 (read-out: Activity) is under 0.1 µM.
Same read-out and setting: the result for `Cc1nc(COCC2COC2)c(-c2ccc(OCCc3ccc(F)cc3)cc2)c(N2CCC3(CCC3)CC2)c1[C@H](OC(C)(C)C)C(=O)O` [Example 48, (S)-2-(tert-Butoxy)-2-(5-(4-(4-fluorophenethoxy)phenyl)-2-methyl-6-((oxetan-3-ylmethoxy)methyl)-4-(7-azaspiro[3.5]nonan-7-yl)pyridin-3-yl)acetic acid] reads under 0.1 µM.
For `CCOCCOCc1nc(C)c([C@H](OC(C)(C)C)C(=O)O)c(N2CCC3(CCC3)CC2)c1-c1ccc(OCCc2ccc(F)cc2)cc1` [Example 49, (S)-2-(tert-Butoxy)-2-(6-((2-ethoxyethoxy)methyl)-5-(4-(4-fluoro-phenethoxy)phenyl)-2-methyl-4-(7-azaspiro[3.5]nonan-7-yl)pyridin-3-yl)acetic acid], the EC50 is under 0.1 µM (read-out: Activity) and 0.006 µM (read-out: EC50 μM).
As for `Cc1nc(CN(C)C2CCOCC2)c(-c2ccc(OCCc3ccc(F)cc3)cc2)c(N2CCC3(CCC3)CC2)c1[C@H](OC(C)(C)C)C(=O)O` [Example 50, (S)-2-(tert-Butoxy)-2-(5-(4-(4-fluorophenethoxy)phenyl)-2-methyl-6-((methyl(tetrahydro-2H-pyran-4-yl)amino)methyl)-4-(7-azaspiro[3.5]nonan-7-yl)pyridin-3-yl)acetic acid], the EC50 (read-out: Activity) is under 0.1 µM.
Turning to `Cc1nc(COCC2CCOCC2)c(-c2ccc(OCCc3ccc(F)cc3)cc2)c(N2CCC3(CCC3)CC2)c1[C@H](OC(C)(C)C)C(=O)O` [Example 51, (S)-2-(tert-Butoxy)-2-(5-(4-(4-fluorophenethoxy)phenyl)-2-methyl-4-(7-azaspiro[3.5]nonan-7-yl)-6-(((tetrahydro-2H-pyran-4-yl)methoxy)methyl)pyridin-3-yl)acetic acid], for the setting “read-out: Activity”, the EC50 was under 0.1 µM.
On to `Cc1nc(COC2CCOCC2)c(-c2ccc(OCCc3ccc(F)cc3)cc2)c(N2CCC3(CCC3)CC2)c1[C@H](OC(C)(C)C)C(=O)O` [Example 52, (S)-2-(tert-Butoxy)-2-(5-(4-(4-fluorophenethoxy)phenyl)-2-methyl-4-(7-azaspiro[3.5]nonan-7-yl)-6-(((tetrahydro-2H-pyran-4-yl)oxy)methyl)pyridin-3-yl)acetic acid], for which, under “read-out: Activity”, the EC50 is under 0.1 µM.
On to `Cc1nc(CN2CCCCC2)c(-c2ccc(OCCc3ccc(F)cc3)cc2)c(N2CCC3(CCC3)CC2)c1[C@H](OC(C)(C)C)C(=O)O` [Example 53, (S)-2-(tert-Butoxy)-2-(5-(4-(4-fluorophenethoxy)phenyl)-2-methyl-6-(piperidin-1-ylmethyl)-4-(7-azaspiro[3.5]nonan-7-yl)pyridin-3-yl)acetic acid], for which, for the setting “read-out: Activity”, the EC50 was under 0.1 µM.
Still for that read-out and setting: the result for `Cc1nc(CN2CCOCC2)c(-c2ccc(OCCc3ccc(F)cc3)cc2)c(N2CCC3(CCC3)CC2)c1[C@H](OC(C)(C)C)C(=O)O` [Example 54, (S)-2-(tert-Butoxy)-2-(5-(4-(4-fluorophenethoxy)phenyl)-2-methyl-6-(morpholinomethyl)-4-(7-azaspiro[3.5]nonan-7-yl)pyridin-3-yl)acetic acid] reads under 0.1 µM.
Turning to `Cc1nc(CNC2CCOCC2)c(-c2ccc(OCCc3ccc(F)cc3)cc2)c(N2CCC3(CCC3)CC2)c1[C@H](OC(C)(C)C)C(=O)O` [Example 55, (S)-2-(tert-Butoxy)-2-(5-(4-(4-fluorophenethoxy)phenyl)-2-methyl-4-(7-azaspiro[3.5]nonan-7-yl)-6-(((tetrahydro-2H-pyran-4-yl)amino)methyl)pyridin-3-yl)acetic acid], the EC50 by setting is: (read-out: Activity) under 0.1 µM; (read-out: EC50 μM) 0.001 µM.
Take `Cc1nc(CNCC2CCCCC2)c(-c2ccc(OCCc3ccc(F)cc3)cc2)c(N2CCC3(CCC3)CC2)c1[C@H](OC(C)(C)C)C(=O)O` [Example 56, (S)-2-(tert-Butoxy)-2-(6-(((cyclohexylmethyl)amino)methyl)-5-(4-(4-fluorophenethoxy)phenyl)-2-methyl-4-(7-azaspiro[3.5]nonan-7-yl)pyridin-3-yl)acetic acid]: the EC50 (read-out: Activity) was under 0.1 µM.
Turning to `Cc1nc(CN2CCC3(CCC3)CC2)c(-c2ccc(OCCc3ccc(F)cc3)cc2)c(N2CCC3(CCC3)CC2)c1[C@H](OC(C)(C)C)C(=O)O` [Example 57, (S)-2-(6-(7-Azaspiro[3.5]nonan-7-ylmethyl)-5-(4-(4-fluorophenethoxy)phenyl)-2-methyl-4-(7-azaspiro[3.5]nonan-7-yl)pyridin-3-yl)-2-(tert-butoxy)acetic acid], the EC50 (read-out: Activity) is under 0.1 µM.
Take `Cc1nc(COC2COC2)c(-c2ccc(OCCc3ccc(F)cc3)cc2)c(N2CCC3(CCC3)CC2)c1[C@H](OC(C)(C)C)C(=O)O` [Example 58, (S)-2-(tert-Butoxy)-2-(5-(4-(4-fluorophenethoxy)phenyl)-2-methyl-6-((oxetan-3-yloxy)methyl)-4-(7-azaspiro[3.5]nonan-7-yl)pyridin-3-yl)acetic acid]: the EC50 (read-out: Activity) was under 0.1 µM.
The same measure, in the same setting: in the case of `Cc1nc(CN(C)CC2CCCCC2)c(-c2ccc(OCCc3ccc(F)cc3)cc2)c(N2CCC3(CCC3)CC2)c1[C@H](OC(C)(C)C)C(=O)O` [Example 59, (S)-2-(tert-Butoxy)-2-(6-(((cyclohexylmethyl)(methyl)amino)methyl)-5-(4-(4-fluorophenethoxy)phenyl)-2-methyl-4-(7-azaspiro[3.5]nonan-7-yl)pyridin-3-yl)acetic acid] it was under 0.1 µM; in that of `Cc1nc(C)c([C@H](OC(C)(C)C)C(=O)O)c(N2CCC3(CCCCC3)CC2)c1-c1ccc(OCCc2ccc(F)cc2)cc1` [Example 60, (S)-2-(tert-Butoxy)-2-(5-(4-(4-fluorophenethoxy)phenyl)-2,6-dimethyl-4-(3-azaspiro[5.5]undecan-3-yl)pyridin-3-yl)acetic acid], under 0.1 µM.
On the same count and under the same terms, in the case of `Cc1nc(C)c([C@H](OC(C)(C)C)C(=O)O)c(N2CCC3(CCCCC3)CC2)c1-c1ccc(C(=O)NCc2ccccc2)cc1` [Example 61, (S)-2-(5-(4-(Benzylcarbamoyl)phenyl)-2,6-dimethyl-4-(3-azaspiro[5.5]undecan-3-yl)pyridin-3-yl)-2-(tert-butoxy)acetic acid] it was under 0.1 µM.
On to `Cc1nc(C)c([C@H](OC(C)(C)C)C(=O)O)c(N2CCC3(CCCCC3)C2)c1-c1ccc(OCCc2ccc(F)cc2)cc1` [Example 62, (S)-2-(tert-Butoxy)-2-(5-(4-(4-fluorophenethoxy)phenyl)-2,6-dimethyl-4-(2-azaspiro[4.5]decan-2-yl)pyridin-3-yl)acetic acid], for which the EC50 is, setting by setting: (read-out: Activity) under 0.1 µM; (read-out: EC50 μM) 0.017 µM.
In the case of `Cc1nc(C)c([C@H](OC(C)(C)C)C(=O)O)c(N2CCC3(CCCCC3)C2)c1-c1ccc(C(=O)NCc2ccccc2)cc1` [Example 63, (S)-2-(5-(4-(Benzylcarbamoyl)phenyl)-2,6-dimethyl-4-(2-azaspiro[4.5]decan-2-yl)pyridin-3-yl)-2-(tert-butoxy)acetic acid], the EC50 (read-out: Activity) is under 0.1 µM.
Same read-out and setting: in the case of `Cc1nc(C)c([C@H](OC(C)(C)C)C(=O)O)c(N2CCC3(CCCCCC3)C2)c1-c1ccc(OCCc2ccc(F)cc2)cc1` [Example 64, (S)-2-(tert-Butoxy)-2-(5-(4-(4-fluorophenethoxy)phenyl)-2,6-dimethyl-4-(2-azaspiro[4.6]undecan-2-yl)pyridin-3-yl)acetic acid] it was under 0.1 µM; in that of `Cc1nc(C)c([C@H](OC(C)(C)C)C(=O)O)c(N2CCC3(CCCCCC3)C2)c1-c1ccc(C(=O)NCc2ccccc2)cc1` [Example 65, (S)-2-(5-(4-(Benzylcarbamoyl)phenyl)-2,6-dimethyl-4-(2-azaspiro[4.6]undecan-2-yl)pyridin-3-yl)-2-(tert-butoxy) acetic acid], under 0.1 µM.
